Values quoted from earlier work in patent US6627153B1, “Integrated assay for organ function, drugs and/or one or more metabolites” (priority 1999, dated 2003).

Settings: following oral administration; within the first 24 hours

SMILES: CN(C)C(=N)N=C(N)N [Metformin]
- absorbed drug eliminated via the renal route: 90%
